Drawing on US20060223819A1, “Quinoline Derivatives as NK-3 Antagonists” (GlaxoSmithKline S.P.A. & Laboratoire, priority 2000, published 2006), this text covers melting point for five compounds.

The structures appear in SMILES notation.

As for `C[C@H](NC(=O)c1c(CN2CCNCC2)c(-c2ccccc2)nc2ccccc12)c1cccc(O)c1` [Example 4, 2-Phenyl-3-piperazin-1-ylmethyl-quinoline-4-carboxylic acid [(S)-1-(3-hydroxy-phenyl)-ethyl]-amide], the melting point lay within 240 to 244 °C.
In turn, `CC(C)[C@H](NC(=O)c1c(CN2CCN(CC(C(=O)O)c3ccccc3)CC2)c(-c2ccccc2)nc2ccccc12)c1ccccc1` (stereo partly drawn) [Example 16, 3-{4-[4-((S)-2-Methyl-1-phenyl-propylcarbamoyl)-2-phenyl-quinolin-3-ylmethyl]-piperazin-1-yl}-2-phenyl-propionic acid] gave a melting point of 156 to 158 °C.
Regarding `COc1ccc([C@H](C)NC(=O)c2c(CN3CCNCC3)c(-c3ccccc3)nc3ccccc23)cc1` [Example 2, 2-Phenyl-3-piperazin-1-ylmethyl-quinoline-4-carboxylic acid[(S)-1-(4-methoxy-phenyl)-ethyl]-amide], the melting point was 109 to 111 °C.
The compound `C[C@H](NC(=O)c1c(CN2CCNCC2)c(-c2ccccc2)nc2ccccc12)c1ccc(O)cc1` [Example 6, 2-Phenyl-3-piperazin-1-ylmethyl-quinoline-4-carboxylic acid [(S)-1-(4-hydroxy-phenyl)-ethyl]-amide] had a melting point of 163 °C.
Take `C[C@H](NC(=O)c1c(CN2CCNC(=O)C2)c(-c2ccccc2)nc2cc(F)ccc12)C1CCCCC1` [Example 35, 7-Fluoro-3-(3-oxopiperazin-1-ylmethyl)-2-phenylquinoline-4-carboxylic acid ((S)-1-cyclohexyl-ethyl)-amide]: the melting point fell in the range of 163 to 165 °C.

Usually melting point stands for the temperature of the solid-liquid transition.
